Laboratory results published in PubChem BioAssay AID248 (DTP/NCI, 2004).
Several values for one entry are separate records, joined by “and”; a condition that tells them apart may be missing. Equal entries are not always repeated. Toxic doses and inconclusive results are not listed. Rule as the data show it: active = T/C of 150% or more; inactive = T/C below 125%.

Test system: L1210 leukemia ip in BDF1 mice, survival T/C
Test: NCI In Vivo Anticancer Drug Screen. Data for tumor model L1210 Leukemia (intraperitoneal) in B6D2F1 (BDF1) mice
Conditions: endpoint: mean survival time, higher = longer survival
In short: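 Antitumor effect is assessed in tumor-bearing animals. Survival in the compound arm is compared with a vehicle-dosed control arm and expressed as their quotient.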

[1] = dose: 100.0 mg/kg/injection, schedule: Q04DX002 (ip), vehicle: Klucel (hydroxypropylcellulose) (HPC)
[2] = dose: 200.0 mg/kg/injection, schedule: Q04DX002 (ip), vehicle: Klucel (hydroxypropylcellulose) (HPC)
[3] = dose: 400.0 mg/kg/injection, schedule: Q04DX002 (ip), vehicle: Klucel (hydroxypropylcellulose) (HPC)

Measured: T/C

COc1ccccc1N=Nc1c(O)n(-c2ccc(C)cc2)c(=S)n(-c2ccc(C)cc2)c1=O
inactive: dose: 50.0 mg/kg/injection, schedule: Q01DX001 (ip), vehicle: Klucel (hydroxypropylcellulose) (HPC) 86 % of control | dose: 100.0 mg/kg/injection, schedule: Q01DX001 (ip), vehicle: Klucel (hydroxypropylcellulose) (HPC) 89 % of control | dose: 200.0 mg/kg/injection, schedule: Q01DX001 (ip), vehicle: Klucel (hydroxypropylcellulose) (HPC) 102 % of control

COc1c(-c2cc(C)nc(NC#N)n2)c(O)c(OC)c2occc12
inactive: [1] 109 % of control | [2] 98 % of control | [3] 98 % of control

N#CC(C#N)c1c(F)c(F)c(C(F)(F)F)c(F)c1F
inactive: dose: 10.0 mg/kg/injection, schedule: Q04DX003 (ip), vehicle: Klucel (hydroxypropylcellulose) (HPC) 103 % of control | dose: 20.0 mg/kg/injection, schedule: Q01DX001 (ip), vehicle: Klucel (hydroxypropylcellulose) (HPC) 97 % of control | dose: 20.0 mg/kg/injection, schedule: Q04DX003 (ip), vehicle: Klucel (hydroxypropylcellulose) (HPC) 98 % of control | dose: 40.0 mg/kg/injection, schedule: Q01DX001 (ip), vehicle: Klucel (hydroxypropylcellulose) (HPC) 101 % of control | dose: 40.0 mg/kg/injection, schedule: Q04DX003 (ip), vehicle: Klucel (hydroxypropylcellulose) (HPC) 95 % of control

CCOC(=O)Nc1nc2nc[nH]c2c(NC(c2ccccc2)c2ccccc2)c1Br
inactive: [1] 91 % of control | [2] 91 % of control | [3] 86 % of control

CCCCCCCCCCCCCC(C)NCc1ccccc1 (stereo not given)
inactive: dose: 50.0 mg/kg/injection, schedule: Q01DX001 (ip), vehicle: saline 97 % of control | dose: 100.0 mg/kg/injection, schedule: Q01DX001 (ip), vehicle: saline 88 % of control

CNC=O
inactive: dose: 32.0 mg/kg/injection, schedule: Q01DX015 (ip), vehicle: saline 94 % of control | dose: 42.87 mg/kg/injection, schedule: Q01DX Z (ip), vehicle: carboxymethylcellulose (CMC) 102 % of control | dose: 42.88 mg/kg/injection, schedule: Q01DX Z (ip), vehicle: carboxymethylcellulose (CMC) 107 % of control | dose: 44.12 mg/kg/injection, schedule: Q01DX Z (ip), vehicle: carboxymethylcellulose (CMC) 98 % of control | dose: 63.0 mg/kg/injection, schedule: Q01DX015 (ip), vehicle: saline 94 % of control | dose: 75.0 mg/kg/injection, schedule: Q01DX009 (ip), vehicle: saline 112 % of control | dose: 85.75 mg/kg/injection, schedule: Q01DX Z (ip), vehicle: carboxymethylcellulose (CMC) 103 % of control and 113 % of control | dose: 125.0 mg/kg/injection, schedule: Q01DX015 (ip), vehicle: saline 102 % of control | dose: 125.0 mg/kg/injection, schedule: Q01DX Z (ip), vehicle: saline 110 % of control | dose: 150.0 mg/kg/injection, schedule: Q01DX009 (ip), vehicle: saline 112 % of control | dose: 150.0 mg/kg/injection, schedule: Q01DX Z (ip), vehicle: saline 114 % of control | dose: 171.5 mg/kg/injection, schedule: Q01DX Z (ip), vehicle: carboxymethylcellulose (CMC) 110 % of control and 115 % of control | dose: 176.5 mg/kg/injection, schedule: Q01DX Z (ip), vehicle: carboxymethylcellulose (CMC) 111 % of control | dose: 225.0 mg/kg/injection, schedule: Q01DX001 (ip), vehicle: saline 101 % of control | dose: 225.0 mg/kg/injection, schedule: Q04DX003 (ip), vehicle: saline 97 % of control | dose: 250.0 mg/kg/injection, schedule: Q01DX015 (ip), vehicle: saline 110 % of control | dose: 300.0 mg/kg/injection, schedule: Q01DX009 (ip), vehicle: saline 121 % of control | dose: 343.0 mg/kg/injection, schedule: Q01DX Z (ip), vehicle: carboxymethylcellulose (CMC) 101 % of control and 118 % of control | dose: 353.0 mg/kg/injection, schedule: Q01DX Z (ip), vehicle: carboxymethylcellulose (CMC) 100 % of control | dose: 450.0 mg/kg/injection, schedule: Q01DX001 (ip), vehicle: saline 97 % of control | dose: 450.0 mg/kg/injection, schedule: Q04DX003 (ip), vehicle: saline 101 % of control | dose: 600.0 mg/kg/injection, schedule: Q01DX Z (ip), vehicle: saline 121 % of control | dose: 900.0 mg/kg/injection, schedule: Q01DX001 (ip), vehicle: saline 95 % of control | dose: 900.0 mg/kg/injection, schedule: Q04DX003 (ip), vehicle: saline 119 % of control | dose: 1000.0 mg/kg/injection, schedule: Q01DX015 (ip), vehicle: saline 105 % of control

CCN(CC)CCN(C)C(=O)C1C(c2ccccc2)C1c1ccccc1 (stereo not given)
inactive: dose: 25.0 mg/kg/injection, schedule: Q04DX002 (ip), vehicle: Klucel (hydroxypropylcellulose) (HPC) 93 % of control | dose: 50.0 mg/kg/injection, schedule: Q04DX002 (ip), vehicle: Klucel (hydroxypropylcellulose) (HPC) 105 % of control

CC(=O)Nc1cc2c(cc1[N+](=O)[O-])-c1ccc(F)cc1C2=O
inactive: dose: 100.0 mg/kg/injection, schedule: Q01DX001 (ip), vehicle: carboxymethylcellulose (CMC) 100 % of control | dose: 200.0 mg/kg/injection, schedule: Q01DX001 (ip), vehicle: carboxymethylcellulose (CMC) 96 % of control | dose: 400.0 mg/kg/injection, schedule: Q01DX001 (ip), vehicle: carboxymethylcellulose (CMC) 99 % of control

Nc1ncnc2c1ncn2CCCN1C(=O)c2ccccc2C1=O
inactive: dose: 100.0 mg/kg/injection, schedule: Q04DX003 (ip), vehicle: saline with Tween-80 96 % of control | dose: 200.0 mg/kg/injection, schedule: Q04DX003 (ip), vehicle: saline with Tween-80 93 % of control | dose: 400.0 mg/kg/injection, schedule: Q04DX003 (ip), vehicle: saline with Tween-80 89 % of control

O=C/C(=C/Nc1ccc(C(=O)O)cc1)[N+](=O)[O-]
inactive: [1] 109 % of control | [2] 98 % of control | [3] 98 % of control

COC1CCC(/C(C#N)=C/C2CCC3OCOC3C2)CC1 (stereo not given)
inactive: dose: 100.0 mg/kg/injection, schedule: Q04DX002 (ip), vehicle: saline with Tween-80 101 % of control | dose: 200.0 mg/kg/injection, schedule: Q04DX002 (ip), vehicle: saline with Tween-80 90 % of control | dose: 400.0 mg/kg/injection, schedule: Q04DX002 (ip), vehicle: saline with Tween-80 94 % of control

Cc1c[n+]2ccc3ccccc3c2c2ccccc12
inactive: dose: 1.0 mg/kg/injection, schedule: Q01DX015 (ip), vehicle: carboxymethylcellulose (CMC) 100 % of control | dose: 1.25 mg/kg/injection, schedule: Q01DX009 (ip), vehicle: saline 94 % of control | dose: 2.0 mg/kg/injection, schedule: Q01DX015 (ip), vehicle: carboxymethylcellulose (CMC) 105 % of control | dose: 2.5 mg/kg/injection, schedule: Q01DX009 (ip), vehicle: saline 95 % of control | dose: 2.5 mg/kg/injection, schedule: Q04DX003 (ip), vehicle: acetone 103 % of control | dose: 4.0 mg/kg/injection, schedule: Q01DX015 (ip), vehicle: carboxymethylcellulose (CMC) 117 % of control | dose: 5.0 mg/kg/injection, schedule: Q01DX001 (ip), vehicle: acetone 106 % of control | dose: 5.0 mg/kg/injection, schedule: Q01DX009 (ip), vehicle: saline 113 % of control | dose: 5.0 mg/kg/injection, schedule: Q04DX003 (ip), vehicle: acetone 101 % of control | dose: 7.0 mg/kg/injection, schedule: Q01DX009 (ip), vehicle: saline 113 % of control | dose: 8.0 mg/kg/injection, schedule: Q01DX015 (ip), vehicle: carboxymethylcellulose (CMC) 112 % of control | dose: 10.0 mg/kg/injection, schedule: Q01DX001 (ip), vehicle: acetone 117 % of control

Cc1cc(N(CCCCl)CCCCl)ccc1C=Nc1cc(Cl)c(O)c(Cl)c1
inactive: dose: 100.0 mg/kg/injection, schedule: Q04DX003 (ip), vehicle: Klucel (hydroxypropylcellulose) (HPC) 104 % of control | dose: 200.0 mg/kg/injection, schedule: Q04DX003 (ip), vehicle: Klucel (hydroxypropylcellulose) (HPC) 98 % of control | dose: 400.0 mg/kg/injection, schedule: Q04DX003 (ip), vehicle: Klucel (hydroxypropylcellulose) (HPC) 101 % of control
